Starred links: 1 amine or outer side, 2 acyl side, 3 side chain; linkers in the order of their positions; H or OH if unused. Non-standard residues stand in square brackets, D forms with d. Residues, ends and D or L forms follow the SMILES beside them. ξ: configuration not given here. *: point of attachment. Phe(4-Br) = N[C@@H](Cc1ccc(Br)cc1)C(=O)O; Phe(4-Cl) = N[C@@H](Cc1ccc(Cl)cc1)C(=O)O; Phe(4-I) = N[C@@H](Cc1ccc(I)cc1)C(=O)O; 1Nal = N[C@@H](Cc1cccc2ccccc12)C(=O)O; ξW = NC(Cc1c[nH]c2ccccc12)C(=O)O; Suc = O=C(CCC(=O)[*:2])[*:1]; MeOSuc = COC(=O)CCC(=O)*; Cbz = O=C(OCc1ccccc1)*; Pentanoyl = CCCCC(=O)*; Ahx = NCCCCCC(=O)O; Bn = c1ccc(C*)cc1; OtBu = CC(C)(C)O*
Target: endothelin converting enzyme (ECE) (Sus scrofa, UniProt F1SU04)
Sequence (F1SU04 entry or part of it): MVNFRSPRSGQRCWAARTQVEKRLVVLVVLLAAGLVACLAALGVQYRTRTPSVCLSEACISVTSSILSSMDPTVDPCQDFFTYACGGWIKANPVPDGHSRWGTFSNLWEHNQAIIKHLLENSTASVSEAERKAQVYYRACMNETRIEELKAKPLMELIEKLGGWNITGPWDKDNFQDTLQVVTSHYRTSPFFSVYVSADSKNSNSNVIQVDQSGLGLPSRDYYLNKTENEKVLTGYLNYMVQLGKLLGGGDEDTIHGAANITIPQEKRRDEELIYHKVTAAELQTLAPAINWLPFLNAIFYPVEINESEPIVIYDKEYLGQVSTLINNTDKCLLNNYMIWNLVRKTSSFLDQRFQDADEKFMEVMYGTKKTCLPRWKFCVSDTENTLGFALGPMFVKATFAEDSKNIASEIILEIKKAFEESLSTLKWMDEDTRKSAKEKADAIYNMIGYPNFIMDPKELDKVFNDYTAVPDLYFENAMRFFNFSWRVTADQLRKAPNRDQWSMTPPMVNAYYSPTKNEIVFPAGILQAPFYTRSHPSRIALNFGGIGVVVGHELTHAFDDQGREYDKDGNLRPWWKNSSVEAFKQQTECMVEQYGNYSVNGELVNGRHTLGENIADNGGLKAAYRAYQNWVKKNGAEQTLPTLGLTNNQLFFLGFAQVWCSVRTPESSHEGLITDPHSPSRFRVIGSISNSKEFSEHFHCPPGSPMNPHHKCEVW
Test: "ECE" assay with porcine aortic "ECE" prep, fluorogenic substrate Suc-Ile-Ile-Trp-MCA
Assay type: biochemical
Procedure: IC50 values were determined as follows:
Porcine Aortic "ECE" Prep
Porcine aortas (22-25) were obtained fresh from a local slaughterhouse and delivered in cold PBS on ice. The aortas were cut open, rinsed with cold PBS and the endothelial cell layer scraped into cold PBS using a scalpel. The endothelial cells were pelleted by centrifugation, rinsed once with cold PBS, and repelleted. The pellet was lysed by addition of 10 volumes of 10 mM Tris-HCl, pH 7.0, containing protease inhibitors and DTS, followed by brief sonication and homogenization. The lysate was centrifuged at 100,000 g for 1 hour and the supernatant applied to a MONOQ FPLC anion exchange column equilibrated in 10 mM Tris-HCl, pH 7.0 (buffer A) which was then developed with an increasing gradient of NaCl in buffer A. The active fractions were aliquoted and stored at -70° C.
The ECE assay was performed in 96-well microplates in a total volume of 200μ/well. The assay cocktail contains 100 mM Tris-HCl, pH 7.0, 20 mM CaCl2, 80 μM substrate (Suc-Ile-Ile-Trp-MCA), enzyme and test compounds. The test compounds were preincubated with the enzyme for 15-20 minutes before initiation of the assay by addition of the substrate. The assay was incubated overnight at 37° C. and the fluorescence intensity caused by the release of AMC was determined using a fluorescence microplate reader (EX360 nm/EM460 nm). IC50 values for compounds were determined by constructing concentration-effect curves for the inhibition of enzyme activity. Concentrations on the linear portion of the inhibition curve were used to determine the IC50 utilizing a Hill plot.

[1] = porcine aortic endothelial cell ECE prep, 80 μM Suc-Ile-Ile-Trp-MCA, 15-20 min preincubation, overnight at 37° C., pH 7.0, AMC fluorescence

Compound | IC50 [1] [nM] | IC50 (pH 7) [nM]
CCC(C)C(NC(=O)C(CC(C)C)NC(=O)OCc1ccccc1)C(=O)NC(C=O)Cc1c[nH]c2ccccc12 (stereo not drawn) [Example 28] (Cbz-Leu-Ile-Trp-aldehyde; configuration not given here) | 200 | –
CC[C@H](C)[C@H](NC(=O)OCc1ccccc1)C(=O)N[C@H](C(=O)N[C@H](C=O)Cc1c[nH]c2ccccc12)C(C)C [Example 29, N-Benzyloxycarbonyl-S-isoleucyl-S-valyl-1-S-formyl-1-(1H-indol-3-yl-methyl)-methylamide] (Cbz-Ile-Val-Trp-aldehyde) | 200 | –
CC[C@H](C)[C@H](NC(=O)OCc1ccccc1)C(=O)N[C@@H](Cc1c[nH]c2ccccc12)C(=O)N[C@H](C=O)Cc1c[nH]c2ccccc12 [Example 30, N-Benzyloxycarbonyl-S-isoleucyl-S-tryptophanyl-1-S-formyl-1-(1H-indol-3-yl-methyl)-methylamide] (Cbz-Ile-Trp-Trp-aldehyde) | 200 | –
O=CC(Cc1c[nH]c2ccccc12)NC(=O)C(Cc1ccccc1)NC(=O)C(Cc1ccccc1)NC(=O)OCc1ccccc1 (stereo not drawn) [Example 32, N-Benzyloxycarbonyl-S-phenylalanyl-S-phenylalanyl-1-S-formyl-1-(1H-indol-3-yl-methyl)-methylamide] (Cbz-Phe-Phe-Trp-aldehyde; configuration not given here) | 100 | –
CC[C@H](C)[C@H](NC(=O)OCc1ccccc1)C(=O)N[C@H](C(=O)N[C@H](C=O)Cc1ccc(O)cc1)[C@@H](C)CC [Example 33, N-Benzyloxycarbonyl-S-isoleucyl-S-isoleucyl-1-S-formyl-1-(4-hydroxy-benzyl)-methylamide] (Cbz-Ile-Ile-Tyr-aldehyde) | 200 | –
O=CC(Cc1c[nH]c2ccccc12)NC(=O)[C@H](Cc1cccc2ccccc12)NC(=O)[C@H](Cc1c[nH]c2ccccc12)NC(=O)OCc1ccccc1 (stereo partly drawn) [Example 34, N-Benzyloxycarbonyl-S-tryptophanyl-S-1'naphthylalanyl-1-S-formyl-1-(1H-indol-3-yl-methyl)-methylamide] (Cbz-Trp-[1Nal]-[ξW]-aldehyde) | 8 | –
O=C[C@H](Cc1c[nH]c2ccccc12)NC(=O)[C@H](Cc1ccc(OCc2ccccc2)cc1)NC(=O)[C@H](Cc1c[nH]c2ccccc12)NC(=O)OCc1ccccc1 [Example 36, N-Benzyloxycarbonyl-S-tryptophanyl-S-(O-benzyl)tyrosyl-1-S-formyl-1-(1H-indol-3-yl-methyl)-methylamide] (Cbz-Trp-Tyr(Bn)-Trp-aldehyde) | 30 | –
O=C[C@H](Cc1c[nH]c2ccccc12)NC(=O)[C@H](Cc1cccc2ccccc12)NC(=O)[C@H](Cc1ccc(Br)cc1)NC(=O)OCc1ccccc1 [Example 37, N-Benzyloxycarbonyl-S-p-bromophenylalanyl-S-1'naphthylalanyl-1-S-formyl-1-(1H-indol-3-yl-methyl)-methylamide] (Cbz-[Phe(4-Br)]-[1Nal]-Trp-aldehyde) | – | 7
O=C[C@H](Cc1ccc(Cl)cc1)NC(=O)[C@H](Cc1ccc(OCc2ccccc2)cc1)NC(=O)[C@H](Cc1cccc2ccccc12)NC(=O)OCc1ccccc1 [Example 39, N-Benzyloxycarbonyl-S-1'naphthylalanyl-S-(O-benzyl)tyrosyl-1-S-formyl-1-(4-chlorophenylmethyl)-methyloamide] (Cbz-[1Nal]-Tyr(Bn)-[Phe(4-Cl)]-aldehyde) | 15 | –
O=C[C@H](Cc1c[nH]c2ccccc12)NC(=O)[C@H](Cc1cccc2ccccc12)NC(=O)[C@H](Cc1ccc(I)cc1)NC(=O)OCc1ccccc1 [Example 40, N-Benzyloxycarbonyl-S-p-iodophenylalanyl-S-1'naphthylalanyl-1-S-formyl-1-(1H-indol-3-yl-methyl)-methylamide] (Cbz-[Phe(4-I)]-[1Nal]-Trp-aldehyde) | – | 10
C#CC(=O)C(Cc1c[nH]c2ccccc12)NC(=O)[C@@H](NC(=O)[C@@H](NC(=O)OCc1ccccc1)[C@@H](C)CC)[C@@H](C)CC (stereo partly drawn) [Example 49, N-Benzyloxycarbonyl-L-isoleucyl-L-isoleucine-L_N-[1[2-propynoyl]2-(1H-indol-3-yl)ethyl]amide] | 10000 | –
CC[C@H](C)[C@H](NC(=O)OCc1ccccc1)C(=O)N[C@H](C(=O)NC(C=NNC(N)=O)Cc1c[nH]c2ccccc12)[C@@H](C)CC (stereo partly drawn) [Example 56, N-Benzyloxycarbonyl-L-isoleucyl-L-isoleucine-L-N-[1[semicarbazonomethyl]2-(1H-indol-3-yl)ethyl]amide] | 10000 | –
CC[C@H](C)[C@H](NC(=O)CC(c1ccccc1)c1ccccc1)C(=O)N[C@H](C(=O)NC(C=O)Cc1c[nH]c2ccccc12)[C@@H](C)CC (stereo partly drawn) [Example 58] | 100 | –
CC[C@H](C)[C@H](NC(C)=O)C(=O)N[C@H](C(=O)NC(C=O)Cc1c[nH]c2ccccc12)[C@@H](C)CC (stereo partly drawn) [Example 60] (Ac-Ile-Ile-[ξW]-aldehyde) | 1000 | –
CC[C@H](C)[C@H](NC(=O)CCC(=O)O)C(=O)N[C@H](C(=O)N[C@H](C=O)Cc1c[nH]c2ccccc12)[C@@H](C)CC [Example 61] (Suc-Ile-Ile-Trp-aldehyde) | 800 | –
CC[C@H](C)[C@H](NC(=O)[C@H](CC(=O)OC(C)(C)C)NC(=O)OCc1ccccc1)C(=O)N[C@H](C(=O)N[C@H](C=O)Cc1c[nH]c2ccccc12)[C@@H](C)CC [Example 64] (Cbz-D(OtBu)IIW-aldehyde) | 60 | –
CC[C@H](C)[C@H](NC(=O)CCCCCNC(=O)CCCCC1SCC2NC(=O)NC21)C(=O)N[C@H](C(=O)NC(Cc1c[nH]c2ccccc12)C(OC)OC)[C@@H](C)CC (stereo partly drawn) [Example 66, N-[[[5-(hexahydro-2-oxo-1H-thieno[3,4-d]imidazol-4-yl)valeramido]hexanoyl]-L-isoleucyl-L-isoleucine-L-N-[1-dimethoxymethyl]2-(1H-indol-3-yl)ethyl]amide] | 300 | –
CC[C@H](C)[C@H](NC(=O)CCCCCNC(=O)CCCCCNC(=O)OCc1ccccc1)C(=O)N[C@H](C(=O)N[C@@H](Cc1c[nH]c2ccccc12)C(OC)OC)[C@@H](C)CC [Example 68] | 5000 | –
CC[C@H](C)[C@H](NC(=O)CCCCCNC(=O)CCCCCNC(=O)c1cc(=O)[nH]c(=O)[nH]1)C(=O)N[C@H](C(=O)NC(C=O)Cc1c[nH]c2ccccc12)[C@@H](C)CC (stereo partly drawn) [Example 69] | 60 | –
CC[C@H](C)[C@H](NC(=O)CCCCCNC(=O)CCCCCNC(=O)CC1NC(=O)NC1=O)C(=O)N[C@H](C(=O)NC(C=O)Cc1c[nH]c2ccccc12)[C@@H](C)CC (stereo partly drawn) [Example 70] | 80 | –
CC[C@H](C)[C@H](NC(=O)CCCCCNC(=O)OCc1ccccc1)C(=O)N[C@H](C(=O)N[C@H](C=O)Cc1c[nH]c2ccccc12)[C@@H](C)CC [Example 71] ({Cbz-Ahx}-Ile-Ile-Trp-aldehyde) | 40 | –
CCCCC(=O)N[C@H](C(=O)N[C@H](C(=O)NC(C=O)Cc1c[nH]c2ccccc12)[C@@H](C)CC)[C@@H](C)CC (stereo partly drawn) [Example 72] (Pentanoyl-Ile-Ile-[ξW]-aldehyde) | 150 | –
CC[C@H](C)[C@H](NC(=O)CCC(=O)OC)C(=O)N[C@H](C(=O)NC(Cc1c[nH]c2ccccc12)C(OC)OC)[C@@H](C)CC (stereo partly drawn) [Example 73] | 8000 | –
CC[C@H](C)[C@H](NC(=O)CCC(=O)OC)C(=O)N[C@H](C(=O)NC(C=O)Cc1c[nH]c2ccccc12)[C@@H](C)CC (stereo partly drawn) [Example 74] (MeOSuc-Ile-Ile-[ξW]-aldehyde) | 80 | –
NC(=O)NN=CC(Cc1c[nH]c2ccccc12)NC(=O)[C@H](Cc1c[nH]c2ccccc12)NC(=O)[C@H](Cc1c[nH]c2ccccc12)NC(=O)OCc1ccccc1 (stereo partly drawn) [Example 75] | 40 | –
CC[C@@H](C)[C@@H](NC(=O)OCc1ccccc1)C(=O)N[C@H](C(=O)N[C@H](C=O)Cc1c[nH]c2ccccc12)[C@@H](C)CC [Example 77, N-Benzyloxycarbonyl-R-isoleucyl-S-isoleucine-1-S--formyl-2-(1H--indol-3-yl)-ethylamide] (Cbz-[dI]-Ile-Trp-aldehyde) | 1000 | –
COC(OC)C(Cc1c[nH]c2ccccc12)NC(=O)[C@H](Cc1c[nH]c2ccccc12)NC(=O)[C@H](Cc1c[nH]c2ccccc12)NC(=O)CCCCCNC(=O)CCCCC1SCC2NC(=O)NC21 (stereo partly drawn) [Example 78, N-[[[5-(hexahydro-2-oxo-1H-thieno[3,4-d]imidazol-4-yl)valeramido]hexanoyl]-L-trytophanyl-L-tryptophan-L-N-[1-dimethoxymethyl]2-(1H-indol-3-yl)ethyl]amide] | 10000 | –
CC[C@H](C)[C@H](NC(=O)OCc1ccccc1)C(=O)N[C@H](C(=O)NC(Cc1c[nH]c2ccccc12)NC(=O)COC(C)=O)[C@@H](C)CC (stereo partly drawn) [Example 80] | 10000 | –
CC[C@H](C)[C@H](NC(=O)OCc1cccnc1)C(=O)N[C@H](C(=O)N[C@H](C=O)Cc1c[nH]c2ccccc12)[C@@H](C)CC [Example 81] | 200 | –
CCOC(=O)C1OC1C(=O)NCC(Cc1c[nH]c2ccccc12)NC(=O)[C@@H](NC(=O)[C@@H](NC(=O)OCc1ccccc1)[C@@H](C)CC)[C@@H](C)CC (stereo partly drawn) [Example 82] | 10000 | –

— patent US6235717A, “Pharmaceutical compounds” (Glaxo Wellcome Inc., priority 1993, dated 2001)
